In paper PMC9866482, “Determination of Chemical Composition and Investigation of Biological Activities of Ocimum basilicum L” (Molecules, 2023):
Marks after values point to notes of the source that are not given here.

Tests used:
[1] = tested on: Staphylococcus aureus ATCC 29213; assay: Disc diffusion assay; type: cell-based; conditions: ATCC29213, disc with 10 µL EO or aqueous extract, chloramphenicol 30 µg, read-out: Diameters of the inhibition zones
Method: (§1) The bacterial strains were revived by inoculation in Mueller–Hinton Agar (MHA) followed by incubation at 37 °C for 24 h. A bacterial suspension (0.5 McFarland) was prepared in sterile physiologic water (0.9% NaCl) from the obtained culture. The yeast strain was inoculated in Sabouraud’s agar (SA) and incubated at 25 °C for 48 h, then a yeast suspension (0.5 McFarland) was prepared in sterile physiological water. The Fungi strains were sub-cultured in SA and incubated at 25 °C for 5 days. Afterward, the culture was washed with 2 mL of sterile physiological water. The suspension was transferred to a sterile assay tube, where the heavy particles were allowed to settle for 5 min. The upper homogeneous suspensions were transferred to a new sterile tube and adjusted microscopically to about 10^4 CFU/mL.
(§2) Briefly, the culture suspension was inoculated by swab on optimal culture media (MHA for bacteria and SA for yeasts and fungi). Afterward, six mm diameter sterile paper discs soaked in 10 µL of EO (mixed with 5% dimethyl sulfoxide (DMSO)) or aqueous extract were deposited on each plate. Chloramphenicol (30 µg) was used as a positive control for bacteria, and nystatin (100 I.U.) was used as a positive control for yeasts and fungi, while DMSO (10 µL; 5%) as a negative control. Incubation was then conducted at 37 °C for 24 h, 25 °C for 48 h, and 25 °C for 72 h for bacteria, yeasts, and fungi, respectively. After incubation, the diameters of the inhibition zones were measured in millimeters, and the results were expressed as the mean ± standard deviation (SD) of three replicates.

[2] = tested on: Listeria monocytogenes ATCC 13932; assay: Disc diffusion assay; type: cell-based; conditions: ATCC13932, disc with 10 µL EO or aqueous extract, chloramphenicol 30 µg, read-out: Diameters of the inhibition zones
Method: as §1, §2

[3] = tested on: Salmonella enterica Typhimurium ATCC 700408; assay: Disc diffusion assay; type: cell-based; conditions: disc with 10 µL EO or aqueous extract, chloramphenicol 30 µg, read-out: Diameters of the inhibition zones
Method: as §1, §2

[4] = tested on: Bacillus subtilis ATCC 6633; assay: Disc diffusion assay; type: cell-based; conditions: disc with 10 µL EO or aqueous extract, chloramphenicol 30 µg
Method: as §1, §2

[5] = tested on: Proteus mirabilis ATCC 25933; assay: Disc diffusion assay; type: cell-based; conditions: ATCC25933, disc with 10 µL EO or aqueous extract, chloramphenicol 30 µg, read-out: Diameters of the inhibition zones
Method: as §1, §2

[6] = tested on: Escherichia coli ATCC 25922; assay: Disc diffusion assay; type: cell-based; conditions: ATCC25922, disc with 10 µL EO or aqueous extract, chloramphenicol 30 µg, read-out: Diameters of the inhibition zones
Method: as §1, §2

[7] = tested on: Staphylococcus aureus ATCC 29213; assay: MIC and MBC by microdilution; type: cell-based; conditions: ATCC29213, head does not say MIC or MBC, read-out: Controls (MIC of positive control)
Method: (§3) The bacterial strains were revived by inoculation in Mueller–Hinton Agar (MHA) followed by incubation at 37 °C for 24 h. A bacterial suspension (0.5 McFarland) was prepared in sterile physiologic water (0.9% NaCl) from the obtained culture. The yeast strain was inoculated in Sabouraud’s agar (SA) and incubated at 25 °C for 48 h, then a yeast suspension (0.5 McFarland) was prepared in sterile physiological water. The Fungi strains were sub-cultured in SA and incubated at 25 °C for 5 days. Afterward, the culture was washed with 2 mL of sterile physiological water. The suspension was transferred to a sterile assay tube, where the heavy particles were allowed to settle for 5 min. The upper homogeneous suspensions were transferred to a new sterile tube and adjusted microscopically to about 10^4 CFU/mL. […] The minimum inhibitory concentration (MIC) is defined as the lowest concentration of EO or extract that can inhibit the growth of microorganisms. […] Mueller–Hinton broth (MHB) (Biokar, Beauvais, France) was used for bacteria, whereas Sabouraud broth (Biokar, Beauvais, France) was employed for yeast. The incubation was carried out at 37 °C for 24 h for the bacteria and at 25 °C for 48 h for the yeasts. However, MIC determination for fungi was carried out by the gradient plate method according to the protocol previously described. Chloramphenicol was used as a positive control for bacteria, while nystatin was used for yeasts and fungi. Minimum bactericidal concentration (MBC) corresponds to the lowest EO or extract concentration that can kill the microorganism. The same microdilution experiment used in determining the MIC was used.

[8] = tested on: Listeria monocytogenes ATCC 13932; assay: MIC and MBC by microdilution; type: cell-based; conditions: ATCC13932, head does not say MIC or MBC, read-out: Controls (MIC of positive control)
Method: as §3

[9] = tested on: Salmonella enterica Typhimurium ATCC 700408; assay: MIC and MBC by microdilution; type: cell-based; conditions: head does not say MIC or MBC, read-out: Controls (MIC of positive control)
Method: as §3

[10] = tested on: Bacillus subtilis ATCC 6633; assay: MIC and MBC by microdilution; type: cell-based; conditions: ATCC6633, head does not say MIC or MBC, read-out: Controls (MIC of positive control)
Method: as §3

[11] = tested on: Proteus mirabilis ATCC 25933; assay: MIC and MBC by microdilution; type: cell-based; conditions: ATCC25933, head does not say MIC or MBC, read-out: Controls (MIC of positive control)
Method: as §3

[12] = tested on: Escherichia coli ATCC 25922; assay: MIC and MBC by microdilution; type: cell-based; conditions: ATCC25922, head does not say MIC or MBC, method names the control for MIC, read-out: Controls (MIC of positive control)
Method: as §3

Candida albicans [13] = assay: MIC and MBC by microdilution (yeast); type: cell-based; conditions: head does not say MIC or MBC
Method: as §3, with “Chloramphenicol was used as a positive control for bacteria, while nystatin was used for yeasts and fungi. Minimum bactericidal concentration (MBC) corresponds to the lowest EO or extract concentration that can kill the microorganism. The same microdilution experiment used in determining the MIC was used.” left out

Candida albicans [14] = assay: Disc diffusion assay; type: cell-based; conditions: disc with 10 µL EO or aqueous extract, nystatin 100 I.U.
Method: as §1, §2

Aspergillus niger [15] = assay: Disc diffusion assay; type: cell-based; conditions: disc with 10 µL EO or aqueous extract, nystatin 100 I.U.
Method: as §1, §2

Trichophyton rubrum [16] = assay: Disc diffusion assay; type: cell-based; conditions: disc with 10 µL EO or aqueous extract, nystatin 100 I.U.
Method: as §1, §2

Aspergillus niger [17] = assay: MIC by gradient plate method, MBC; type: cell-based; conditions: head does not say MIC or MBC
Method: as §3, with “Chloramphenicol was used as a positive control for bacteria, while nystatin was used for yeasts and fungi. Minimum bactericidal concentration (MBC) corresponds to the lowest EO or extract concentration that can kill the microorganism. The same microdilution experiment used in determining the MIC was used.” left out

Trichophyton rubrum [18] = assay: MIC by gradient plate method, MBC; type: cell-based; conditions: head does not say MIC or MBC
Method: as §3, with “Chloramphenicol was used as a positive control for bacteria, while nystatin was used for yeasts and fungi. Minimum bactericidal concentration (MBC) corresponds to the lowest EO or extract concentration that can kill the microorganism. The same microdilution experiment used in determining the MIC was used.” left out

ABTS antioxidant assay = conditions: mean of triplicates ± SD
[19] = Ferric reducing antioxidant power (FRAP) assay; conditions: mean of triplicates ± SD
tyrosinase = tyrosinase (Agaricus bisporus, UniProt C7FF04); conditions: basil EOs from different cultivars, arbutin as positive control ref 111; cited from earlier work
[20] = parameters: method as in PMID 35926753; conditions: LPS-treated rats, oral dose 500 mg/60 kg b.w. ref 109; cited from earlier work

tyrosinase, sequence (C7FF04 1-392): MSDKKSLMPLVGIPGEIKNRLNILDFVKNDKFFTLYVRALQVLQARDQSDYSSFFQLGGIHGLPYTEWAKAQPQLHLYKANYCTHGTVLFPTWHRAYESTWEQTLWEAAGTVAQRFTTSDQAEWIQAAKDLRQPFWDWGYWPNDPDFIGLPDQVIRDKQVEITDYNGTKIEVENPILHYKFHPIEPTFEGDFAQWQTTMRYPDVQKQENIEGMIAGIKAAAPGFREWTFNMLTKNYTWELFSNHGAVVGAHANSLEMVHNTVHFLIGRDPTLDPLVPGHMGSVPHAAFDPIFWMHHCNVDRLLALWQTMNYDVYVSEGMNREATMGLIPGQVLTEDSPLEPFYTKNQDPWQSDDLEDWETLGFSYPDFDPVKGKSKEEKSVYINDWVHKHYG

SMILES: O=C(N[C@H](CO)[C@H](O)c1ccc([N+](=O)[O-])cc1)C(Cl)Cl [Chloramphenicol]
- zone of inhibition at 30 µg/disc [1]: 25 ± 0.25 mm
- zone of inhibition at 30 µg/disc [2]: 27.9 ± 0.15 mm
- zone of inhibition at 30 µg/disc [3]: 13.5 ± 0.15 mm
- Diameters of the inhibition zones ([4]; Bacillus subtilis ATCC 6633): 15.5 ± 0.15 mm
- zone of inhibition at 30 µg/disc ([4]; Bacillus subtilis, ATCC6633, Bacillus subtilis ATCC 6633, read-out: Diameters of the inhibition zones): 15.7 mm
- zone of inhibition at 30 µg/disc [5]: 22.2 ± 0.15 mm
- zone of inhibition at 30 µg/disc [6]: 21.9 ± 0.2 mm
- MIC [7]: 4 µg/mL
- MIC [8]: 2 µg/mL
- MIC [9]: 64 µg/mL
- MIC [10]: 32 µg/mL
- MIC [11]: 4 µg/mL
- MIC [12]: 4 µg/mL

SMILES: C[C@@H]1[C@H](O)[C@@H](C)/C=C/C=C/CC/C=C/C=C/C=C/C=C/C(O[C@H]2O[C@H](C)[C@@H](O)[C@H](N)[C@@H]2O)CC2O[C@](O)(CC(O)C(O)CCC(O)CC(O)CC(O)CC(=O)O[C@H]1C)CC(O)C2C(=O)O (stereo partly drawn) [Nystatin]
- Controls (MIC of positive control) (Candida albicans [13]): 4 µg/mL
- Diameters of the inhibition zones (Candida albicans [14]): 29.7 ± 0.20 mm
- Diameters of the inhibition zones (Aspergillus niger [15]): 26.4 ± 0.10 mm
- Diameters of the inhibition zones (Trichophyton rubrum [16]): 24.9 ± 0.26 mm
- Controls (MIC of positive control) (Aspergillus niger [17]): 16 µg/mL
- Controls (MIC of positive control) (Trichophyton rubrum [18]): 16 µg/mL

SMILES: Cc1c(C)c2c(c(C)c1O)CCC(C)(C(=O)O)O2 (stereo not drawn) [Trolox]
- IC50 ABTS (ABTS antioxidant assay): 9.33 ± 0.07 ^c mg TEs/g
- IC50 FRAP [19]: 8.52 ± 0.17 ^c mg TEs/g

SMILES: OC[C@H]1O[C@@H](Oc2ccc(O)cc2)[C@H](O)[C@@H](O)[C@@H]1O [arbutin]
- Tyrosinase inhibitory activity (tyrosinase): 81.5 ± 2.6%

SMILES: O=C(O)c1ccccc1 [benzoic acid]
- Level of IL-1β [20]: 2.32 ± 0.28 × 10^3 pg/mL
- Level of tumor necrosis factor-α (TNF-α) [20]: 5.70 ± 1.04 × 10^3 pg/mL
